Reference: the supplement of paper PMC12463676, “Small-molecule dissolution of stress granules by redox modulation benefits ALS models” (Nature Chemical Biology, 2025)

Legend:
[1] = compound: NC(=O)CCCCC1CCSS1 [lipoamide]; assay: thermal stability z-score vs DMSO; higher = more thermally stabilized by treatment; settings: HeLa, lipoamide concentration 100 µM
Procedure: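 Cellular thermal proteome profiling in HeLa cells. Cells were treated with 100 µM lipoamide for 1 h, with or without 1 mM arsenate for a further 1 h, then heated to ten temperatures (37-66.3 °C), and soluble protein was quantified by TMT mass spectrometry relative to 0.1% DMSO controls. The thermal stability score (sum of log2 fold changes minus the abundance score) was transformed to a z-score; mean of n = 3 experiments.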

[2] = compound: O=[As]([O-])(O)O.[K+] [potassium arsenate]; assay: as above; settings: HeLa; arsenate concentration 1 mM
Procedure: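 Cellular thermal proteome profiling in HeLa cells treated with 1 mM arsenate for 1 h (DMSO pretreatment), heated to ten temperatures (37-66.3 °C). Soluble protein was quantified by TMT mass spectrometry relative to DMSO controls; the thermal stability score was transformed to a z-score; mean of n = 3 experiments.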

[3] = arsenate co-treatment: 1 mM arsenate 1 h
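Note: each temperature applied for 3 min, abundance score taken as mean log2 fold change at the two lowest temperatures, z-score obtained by mean subtraction and division by SD.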

UniProt P60510, sequence (P60510 whole entry): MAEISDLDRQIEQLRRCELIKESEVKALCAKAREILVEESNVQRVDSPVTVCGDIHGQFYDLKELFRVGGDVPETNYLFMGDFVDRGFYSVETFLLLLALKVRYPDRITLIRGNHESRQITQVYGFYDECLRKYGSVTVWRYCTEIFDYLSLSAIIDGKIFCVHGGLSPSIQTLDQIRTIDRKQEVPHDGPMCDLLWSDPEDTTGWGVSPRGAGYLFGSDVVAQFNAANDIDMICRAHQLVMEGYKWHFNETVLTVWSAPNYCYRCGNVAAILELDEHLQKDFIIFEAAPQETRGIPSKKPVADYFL
UniProt P14174, sequence (P14174 whole entry): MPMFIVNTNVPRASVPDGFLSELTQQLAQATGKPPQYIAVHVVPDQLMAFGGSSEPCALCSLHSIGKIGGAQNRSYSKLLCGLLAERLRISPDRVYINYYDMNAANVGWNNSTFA
UniProt Q9NRG1, sequence (Q9NRG1 whole entry): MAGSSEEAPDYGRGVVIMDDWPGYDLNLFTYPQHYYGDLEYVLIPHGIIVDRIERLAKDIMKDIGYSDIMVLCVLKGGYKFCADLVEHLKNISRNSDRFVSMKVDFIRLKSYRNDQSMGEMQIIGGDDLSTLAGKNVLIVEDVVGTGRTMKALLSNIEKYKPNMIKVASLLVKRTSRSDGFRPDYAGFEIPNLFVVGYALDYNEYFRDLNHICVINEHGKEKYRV
UniProt Q5VV41, sequence (Q5VV41 whole entry): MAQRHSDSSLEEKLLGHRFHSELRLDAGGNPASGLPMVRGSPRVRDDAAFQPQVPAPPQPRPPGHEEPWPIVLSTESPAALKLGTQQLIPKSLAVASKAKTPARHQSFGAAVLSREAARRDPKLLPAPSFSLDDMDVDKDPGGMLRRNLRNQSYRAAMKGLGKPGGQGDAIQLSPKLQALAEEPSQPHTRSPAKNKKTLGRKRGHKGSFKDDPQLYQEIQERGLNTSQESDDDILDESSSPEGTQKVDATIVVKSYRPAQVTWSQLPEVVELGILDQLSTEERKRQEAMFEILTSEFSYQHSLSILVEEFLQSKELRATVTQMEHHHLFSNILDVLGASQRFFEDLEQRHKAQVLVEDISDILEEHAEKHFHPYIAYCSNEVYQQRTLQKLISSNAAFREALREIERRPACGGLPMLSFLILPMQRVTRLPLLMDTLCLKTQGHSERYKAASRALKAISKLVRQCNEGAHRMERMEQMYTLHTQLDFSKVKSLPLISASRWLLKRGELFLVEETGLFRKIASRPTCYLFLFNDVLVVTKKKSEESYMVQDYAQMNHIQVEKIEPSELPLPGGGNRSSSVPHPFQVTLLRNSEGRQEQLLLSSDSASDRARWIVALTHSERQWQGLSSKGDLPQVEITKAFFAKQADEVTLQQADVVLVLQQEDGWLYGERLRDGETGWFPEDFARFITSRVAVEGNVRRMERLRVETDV
UniProt O15091, sequence (O15091 whole entry): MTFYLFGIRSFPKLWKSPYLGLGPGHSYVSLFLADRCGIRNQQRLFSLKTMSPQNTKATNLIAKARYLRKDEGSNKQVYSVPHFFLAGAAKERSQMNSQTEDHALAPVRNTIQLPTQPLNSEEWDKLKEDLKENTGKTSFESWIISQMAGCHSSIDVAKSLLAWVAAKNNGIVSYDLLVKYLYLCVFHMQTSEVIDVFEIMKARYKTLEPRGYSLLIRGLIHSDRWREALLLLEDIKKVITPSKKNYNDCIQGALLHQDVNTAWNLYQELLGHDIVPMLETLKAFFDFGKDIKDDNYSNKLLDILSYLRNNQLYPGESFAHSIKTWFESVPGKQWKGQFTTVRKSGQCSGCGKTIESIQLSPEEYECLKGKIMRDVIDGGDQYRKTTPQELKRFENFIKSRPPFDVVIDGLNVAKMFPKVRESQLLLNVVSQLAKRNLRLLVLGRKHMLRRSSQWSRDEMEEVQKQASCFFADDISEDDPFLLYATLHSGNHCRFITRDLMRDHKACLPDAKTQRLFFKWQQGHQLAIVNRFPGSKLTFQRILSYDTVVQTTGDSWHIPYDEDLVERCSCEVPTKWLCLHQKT
UniProt B0YJ81, sequence (B0YJ81 whole entry): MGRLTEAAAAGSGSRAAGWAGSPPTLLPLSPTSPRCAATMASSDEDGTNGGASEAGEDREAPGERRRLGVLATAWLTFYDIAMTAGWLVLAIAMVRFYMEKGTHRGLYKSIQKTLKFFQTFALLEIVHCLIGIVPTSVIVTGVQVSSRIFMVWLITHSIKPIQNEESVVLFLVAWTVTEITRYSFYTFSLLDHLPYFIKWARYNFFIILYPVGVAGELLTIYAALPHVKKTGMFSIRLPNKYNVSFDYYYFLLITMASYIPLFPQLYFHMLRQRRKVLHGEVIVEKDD
UniProt Q86VU5, sequence (Q86VU5 whole entry): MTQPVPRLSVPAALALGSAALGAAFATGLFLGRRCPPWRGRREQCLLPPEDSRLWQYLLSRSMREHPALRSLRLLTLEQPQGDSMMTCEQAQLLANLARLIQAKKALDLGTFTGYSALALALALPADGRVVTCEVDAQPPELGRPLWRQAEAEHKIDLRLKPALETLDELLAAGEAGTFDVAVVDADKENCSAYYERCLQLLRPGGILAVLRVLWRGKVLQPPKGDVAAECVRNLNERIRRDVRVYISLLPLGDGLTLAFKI
UniProt Q96MH2, sequence (Q96MH2 whole entry): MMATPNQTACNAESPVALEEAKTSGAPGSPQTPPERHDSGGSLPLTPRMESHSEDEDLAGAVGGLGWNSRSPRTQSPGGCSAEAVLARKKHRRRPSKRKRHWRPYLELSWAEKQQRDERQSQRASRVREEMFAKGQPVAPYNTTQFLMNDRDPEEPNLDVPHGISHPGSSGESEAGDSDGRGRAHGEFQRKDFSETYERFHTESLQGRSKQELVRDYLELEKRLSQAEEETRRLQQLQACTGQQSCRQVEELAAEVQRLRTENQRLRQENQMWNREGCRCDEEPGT
UniProt P61599, sequence (P61599 whole entry): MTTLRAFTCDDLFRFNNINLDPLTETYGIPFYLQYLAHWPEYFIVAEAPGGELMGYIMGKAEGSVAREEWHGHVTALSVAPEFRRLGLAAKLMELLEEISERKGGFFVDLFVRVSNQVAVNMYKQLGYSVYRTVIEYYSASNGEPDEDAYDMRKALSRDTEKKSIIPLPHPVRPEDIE
UniProt P46734, sequence (P46734 whole entry): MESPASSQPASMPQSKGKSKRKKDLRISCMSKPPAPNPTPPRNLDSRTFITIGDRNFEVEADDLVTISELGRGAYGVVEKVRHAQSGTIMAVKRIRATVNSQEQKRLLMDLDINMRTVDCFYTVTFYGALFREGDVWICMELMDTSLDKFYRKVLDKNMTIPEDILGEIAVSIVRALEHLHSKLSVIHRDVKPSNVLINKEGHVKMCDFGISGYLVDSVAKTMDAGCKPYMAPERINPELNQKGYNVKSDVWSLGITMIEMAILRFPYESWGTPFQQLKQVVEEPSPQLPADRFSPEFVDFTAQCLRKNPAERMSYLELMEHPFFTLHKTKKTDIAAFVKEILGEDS
UniProt Q01974, sequence (Q01974 whole entry): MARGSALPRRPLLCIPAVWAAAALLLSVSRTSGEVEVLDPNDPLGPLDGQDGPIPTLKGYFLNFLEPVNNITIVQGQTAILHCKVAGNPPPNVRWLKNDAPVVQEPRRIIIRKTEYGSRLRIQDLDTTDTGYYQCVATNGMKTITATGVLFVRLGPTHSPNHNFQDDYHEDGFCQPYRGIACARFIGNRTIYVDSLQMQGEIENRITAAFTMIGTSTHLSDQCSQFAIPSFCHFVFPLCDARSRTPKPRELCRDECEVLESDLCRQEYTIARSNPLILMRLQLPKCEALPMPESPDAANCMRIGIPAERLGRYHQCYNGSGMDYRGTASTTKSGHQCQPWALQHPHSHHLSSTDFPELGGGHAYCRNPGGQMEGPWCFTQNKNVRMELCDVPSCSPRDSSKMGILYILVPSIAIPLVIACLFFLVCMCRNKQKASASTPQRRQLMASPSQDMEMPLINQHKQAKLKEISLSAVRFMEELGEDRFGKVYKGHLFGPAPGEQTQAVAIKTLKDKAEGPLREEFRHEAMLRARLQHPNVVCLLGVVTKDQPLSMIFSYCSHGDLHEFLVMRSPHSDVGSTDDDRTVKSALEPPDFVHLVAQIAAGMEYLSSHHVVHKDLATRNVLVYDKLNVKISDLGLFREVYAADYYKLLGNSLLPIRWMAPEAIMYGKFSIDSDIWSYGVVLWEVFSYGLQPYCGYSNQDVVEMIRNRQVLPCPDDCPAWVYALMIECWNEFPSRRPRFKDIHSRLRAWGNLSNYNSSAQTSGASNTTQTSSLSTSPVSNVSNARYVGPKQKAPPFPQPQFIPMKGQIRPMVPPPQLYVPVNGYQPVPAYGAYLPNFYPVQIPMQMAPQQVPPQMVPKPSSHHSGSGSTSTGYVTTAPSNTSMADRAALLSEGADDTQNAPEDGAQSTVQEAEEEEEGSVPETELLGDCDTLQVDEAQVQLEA
UniProt Q4G0F5, sequence (Q4G0F5 whole entry): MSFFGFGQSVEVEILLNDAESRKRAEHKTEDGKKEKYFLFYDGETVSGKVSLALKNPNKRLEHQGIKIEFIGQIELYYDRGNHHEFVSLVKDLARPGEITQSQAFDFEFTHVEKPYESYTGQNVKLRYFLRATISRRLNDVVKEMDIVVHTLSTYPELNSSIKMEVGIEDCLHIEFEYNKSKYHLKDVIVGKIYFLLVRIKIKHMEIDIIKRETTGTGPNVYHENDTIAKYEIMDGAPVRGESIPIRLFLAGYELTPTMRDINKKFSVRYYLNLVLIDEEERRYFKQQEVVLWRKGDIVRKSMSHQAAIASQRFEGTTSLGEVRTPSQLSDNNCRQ
UniProt Q9UBQ6, sequence (Q9UBQ6 whole entry): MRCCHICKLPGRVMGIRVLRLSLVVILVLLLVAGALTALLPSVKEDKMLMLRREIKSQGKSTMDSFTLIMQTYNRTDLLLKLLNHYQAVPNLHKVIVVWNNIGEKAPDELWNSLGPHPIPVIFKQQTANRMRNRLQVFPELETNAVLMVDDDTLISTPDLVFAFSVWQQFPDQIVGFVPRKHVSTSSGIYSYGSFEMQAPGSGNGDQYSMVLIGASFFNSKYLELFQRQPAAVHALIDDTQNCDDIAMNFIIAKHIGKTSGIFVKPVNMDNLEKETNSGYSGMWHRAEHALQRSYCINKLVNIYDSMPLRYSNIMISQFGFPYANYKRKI

Target	thermal stability z-score [1, 3]	thermal stability z-score ([1]; arsenate co-treatment: none)	thermal stability z-score [2]
EIF2AK4 (UniProt Q9P2K8)	0.566	0.141	2.05
RPAP2 (UniProt Q8IXW5)	-0.0831	-0.0884	-0.0605
NCOA4 (UniProt Q13772)	-0.252	0.00243	-0.116
SCRN2 (UniProt Q96FV2)	0.553	-0.0583	-0.185
LRRC59 (UniProt Q96AG4)	-0.768	-0.195	-1.86
RIOK2 (UniProt Q9BVS4)	-0.0928	-0.423	-0.171
PRKRIP1 (UniProt Q9H875)	0.524	0.599	0.247
EXTL2 (UniProt Q9UBQ6)	1.05	0.893	0.453
PPP4C (UniProt P60510)	0.813	0.205	0.166
FARSB (UniProt Q9NSD9)	0.262	-0.0911	0.893
A0A087WV05|MYCBP	1.93	1.66	0.26
ARMC1 (UniProt Q9NVT9)	0.616	0.111	0.476
TPR (UniProt P12270)	2.13	1.1	-2.19
CCDC43 (UniProt Q96MW1)	0.776	0.412	0.864
TRIM11 (UniProt Q96F44)	-0.68	-1.71	-1.05
GIGYF1 (UniProt O75420)	0.0328	0.0305	0.0812
ARMC8 (UniProt Q8IUR7)	-0.0708	-0.238	-0.668
HEXIM2 (UniProt Q96MH2)	-0.264	0.637	0.53
TBCEL (UniProt Q5QJ74)	-0.202	-0.0108	0.0212
CYSTM1 (UniProt Q9H1C7)	-0.79	0.912	-1.22
VPS26B (UniProt Q4G0F5)	0.123	-0.118	0.0841
PPIL2 (UniProt Q13356)	0.057	-0.0266	-0.223
ARHGEF16 (UniProt Q5VV41)	0.251	-0.0771	-0.201
KIF20A (UniProt O95235)	0.142	0.152	-0.154

Target	thermal stability z-score [1, 3]	thermal stability z-score ([1]; arsenate co-treatment: none)	thermal stability z-score [2]
CLIP1 (UniProt P30622)	-0.0952	0.0784	-0.345
CARS2 (UniProt Q9HA77)	-0.273	-0.517	-1.39
FERMT2 (UniProt Q96AC1)	0.0975	-0.153	0.203
FAF2 (UniProt Q96CS3)	-0.435	-0.684	-0.262
PDE3A (UniProt Q14432)	0.363	0.131	-0.555
NIT1 (UniProt Q86X76)	0.836	0.924	0.439
VPS33B (UniProt Q9H267)	-0.333	0.0129	0.205
LEO1 (UniProt Q8WVC0)	1.13	0.765	0.239
AMMECR1 (UniProt Q9Y4X0)	-0.157	-0.0642	-0.217
PRTFDC1 (UniProt Q9NRG1)	0.628	0.169	-0.386
IMPAD1 (UniProt Q9NX62)	-0.426	-0.356	-0.352
KIAA0391 (UniProt O15091)	-0.0274	0.14	-0.0848
DSC2 (UniProt Q02487)	2.38	5.06	1.77
HIP1 (UniProt O00291)	0.0784	0.0537	0.215
RCOR3 (UniProt Q9P2K3)	0.0711	0.0826	0.119
MAP2K3 (UniProt P46734)	-0.4	-0.138	0.235
FAM173A (UniProt Q9BQD7)	-0.403	-0.6	-0.445
WDR73 (UniProt Q6P4I2)	0.0525	-0.0893	-0.351
DNAJB12 (UniProt Q9NXW2)	-0.267	-0.124	0.182
ROR2 (UniProt Q01974)	0.3	0.449	-0.811
PLXNA2 (UniProt O75051)	0.937	1.3	-0.219
CIC (UniProt Q96RK0)	0.0454	-0.131	-0.261
PAWR (UniProt Q96IZ0)	0.873	0.657	0.349
PYCRL (UniProt Q53H96)	0.827	0.862	0.43

Target	thermal stability z-score [1, 3]	thermal stability z-score ([1]; arsenate co-treatment: none)	thermal stability z-score [2]
SSH3 (UniProt Q8TE77)	0.153	-0.0576	-0.0687
VPS13C (UniProt Q709C8)	0.038	-0.033	-0.213
COMTD1 (UniProt Q86VU5)	-0.328	-1.94	-0.237
ZFPL1 (UniProt O95159)	-0.552	-1.06	-1.02
C1ORF198 (UniProt Q9H425)	-0.254	0.135	0.635
IQGAP3 (UniProt Q86VI3)	-0.157	-0.0447	-0.171
FADS1 (UniProt O60427)	0.469	0.181	0.226
MTG2 (UniProt Q9H4K7)	-0.0209	0.00401	0.127
HACD1 (UniProt B0YJ81)	-0.754	-1.15	-0.388
MP68 (UniProt P56378)	0.962	0.921	1.15
IPO13 (UniProt O94829)	-0.112	-0.218	-0.159
FAM73A (UniProt Q8NAN2)	-0.106	0.0979	0.164
CDKN2AIP (UniProt Q9NXV6)	0.446	0.454	-0.347
LRRC8D (UniProt Q7L1W4)	0.38	-0.0451	-0.198
NAA20 (UniProt P61599)	0.753	0.153	0.0823
ANKZF1 (UniProt Q9H8Y5)	0.373	0.0149	0.0789
SLC16A3 (UniProt O15427)	0.645	0.712	0.351
CMTR2 (UniProt Q8IYT2)	0.107	0.13	-0.0808
MIF (UniProt P14174)	0.245	-0.0795	-0.0642
TLN2 (UniProt Q9Y4G6)	-1.57	-0.868	-0.69
ARHGEF11 (UniProt O15085)	-0.0428	0.152	0.14
NTPCR (UniProt Q9BSD7)	-0.0779	-0.905	-0.753
KIAA0101 (UniProt Q15004)	0.253	0.245	0.49
